Laboratory results taken from patent USRE30354E, “Novel ethereally monosubstituted monosaccharides” (Strategic Medical Research Corp., priority 1978, dated 1980).
≈ marks a conversion by molar mass, not a printed value.

Legend:
light sensitivity = type: physicochemical
herpes simplex virus = experiment: inhibition of herpes simplex virus multiplication in tissue culture (plaque formation technic of Rapp); type: cell-based; conditions: for IC50: read-out: Concentration required to exert 50% inhibition of herpes-induced plaque formation; for IC100: read-out: Concentration required to exert 100% inhibition of herpes-induced plaque formation
[1] = test system: influenza A2 virus, Hong Kong strain; experiment: microbe, parasite or virus in culture; type: cell-based
influenza A2 /Hong Kong = experiment: suppression of influenza A2/Hong Kong disease in mice (lung weight); type: in vivo; conditions: 40 mg/Kg orally from 24 h post-infection; 8 days; from lung weights; 50% of drug blocked at 1,2- with acetone
influenza A/PR/8 = experiment: prevention of death in mice with lethal influenza A/PR/8 infection; type: in vivo; conditions: for % of Population Protected / % Mortality: 8 days; for % Mortality: control 95
Protocol: The above medication was also examined for its capacity to prevent death in mice ill with a lethal influenza A/PR/8 infection. The drug was given subcutaneously at 3 dose levels, once 90 minutes before infection.

[2] = 10 mg/Kg s.c. once 90 min before infection
[3] = 40 mg/Kg s.c. once 90 min before infection
[4] = 160 mg/Kg s.c. once 90 min before infection

Row | Molecule | IC50 (herpes simplex virus) [µg/mL] | IC100 (herpes simplex virus) [µg/mL] | further results
1 | 3-O-D-glucopropionitrile | – | – | light sensitivity (light sensitivity): photosensitive
2 | CCN(CC)CCOC1C(C2COC(C)(C)O2)OC2OC(C)(C)OC21 [1,2:5,6-di-O-isopropylidene-3-O-2'-(N',N'-diethylaminoethyl)-D-glucofuranose] | 6 (≈ 16.7 µM) | 30 | –
3 | CCN(CC)CCO[C@H]1[C@H](O)[C@@H](CO)OC(O)[C@@H]1O (stereo partly drawn) [3-O-2'-(N',N'-diethylaminoethyl)-D-glucopyranose] | 2 (≈ 7.16 µM) | 20 | –
4 | CC(CN(C)C)O[C@H]1[C@H](O)[C@@H](CO)OC(O)[C@@H]1O (stereo partly drawn) [3-O-2'-(N',N'-dimethylaminopropyl)-D-glucopyranose] | – | – | Concentration required to exert 50% inhibition of herpes-induced plaque formation (herpes simplex virus; herpes simplex, tissue culture): 3 µg/mL; Concentration required to exert 100% inhibition of herpes-induced plaque formation (herpes simplex virus; herpes simplex, tissue culture): < 20 µg/mL
5 | CC(CO[C@H]1[C@H](O)[C@@H](CO)OC(O)[C@@H]1O)CN(C)C (stereo partly drawn) [3-O-3'-(2',N',N'-trimethylamino-n-propyl)-D-glucopyranose] | 2 (≈ 7.16 µM) | 7 | –
6 | CN(C)CCCO[C@H]1[C@H](O)[C@@H](CO)OC(O)[C@@H]1O (stereo partly drawn) [3-O-3'-(N',N'-dimethylamino-n-propyl)-D-glucopyranose] | 0.3 (≈ 1.13 µM) | 1 | potency of virus-inhibiting effect [1]: the most potent effect; anti-herpes potency (herpes simplex virus; relative to other derivatives of Table 2): the most potent derivative; % Disease Suppression (influenza A2 /Hong Kong): 82%; % of Population Protected (influenza A/PR/8; [2]): 14%; % Mortality (influenza A/PR/8; [2]): 81%; % of Population Protected (influenza A/PR/8; [3]): 23%; % Mortality (influenza A/PR/8; [3]): 72%; % of Population Protected (influenza A/PR/8; [4]): 50%; % Mortality (influenza A/PR/8; [4]): 45%; protection against death (influenza A/PR/8; 3 s.c. dose levels, once 90 minutes before infection): significant dose-dependent protection against death
7 | NCCCO[C@H]1[C@H](O)[C@@H](CO)OC(O)[C@@H]1O (stereo partly drawn) [3-O-3'-n-propylamino-D-glucose, 3-O-3'-(n-propylamino)-D-glucopyranose] | 3 (≈ 12.6 µM) | > 20 | –
8 | CN1CCC(O[C@H]2[C@H](O)[C@@H](CO)OC(O)[C@@H]2O)CC1 (stereo partly drawn) [3-O-4'-(N-methylpiperidyl)-D-glucose, 3-O-4'-(N-methylpiperidyl)-D-glucopyranose] | 0.7 (≈ 2.52 µM) | 6 | –
9 | CN(C)CCCOC[C@H]1OC(O)[C@H](O)[C@@H](O)[C@H]1O (stereo partly drawn) [6-O-3'-(N',N'-dimethylamino-n-propyl)-D-galactopyranose] | 2 (≈ 7.54 µM) | > 10 | –
10 | CC1(C)OCC(C2OC3OC(C)(C)OC3C2OCCC#N)O1 [di-O-isopropylidene-3-O-3'-propionitrile-D-glucofuranose] | – | – | light sensitivity (light sensitivity): light sensitive
11 | CC(CN(C)C)O[C@H]1O[C@H](CO)[C@@H](O)[C@H](O)[C@H]1O (stereo partly drawn) [α-N,N-dimethylaminoisopropyl glucoside, α-N,N-dimethylaminoisopropyl-D-glucoside] | 10 (≈ 37.7 µM) | > 50 | log reduction at 3 µg/mL ([1]; 3 μg/ml, 100 TCD50 inoculum, BHK cells, 4.0 is maximum, read-out: Log Decrease in Infectivity of Virus Inoculum): 1.5; log reduction at 10 µg/mL ([1]; 10 μg/ml, 100 TCD50 inoculum, BHK cells, 4.0 is maximum (complete suppression), read-out: Log Decrease in Infectivity of Virus Inoculum): 2.5
